The assay has as its system stage V gametocytes of P. falciparum (3D7 pULG8-GFP strain). The assay can be described thus: Post-screening validation with 96-well plate microsphiltration (Paris). In kind it is cell-based, Plasmodium falciparum. As to conditions: for confirmation of stiffening activity upon post-screening: DRA, 3D7, Paris laboratory; for retention 24 h after drug washout: 24 h exposure, remeasured additional 24 h after washout; for Normalized retention rate: gametocytes exposed 24 h. How it is done:
Plasmodium falciparum NF54 strain parasites (used for screening campaign) were cultured at 4% hematocrit in RBCs from informed blood donors (blood group A) as previously described. Parasites were taken from the -80 °C freezer, then rapidly melt for 1 minute in a 37 °C water bath. A saline solution was gently added to avoid the lysis. Firstly, NaCl dissolved at 12% in distilled water (1/5 of the volume measured in the cryovial) and then NaCl dissolved at 1.6% (9 times the cryovial’s volume). After that, fresh RBCs were added to allow parasites re-growth. Infected RBCs were kept in RPMI medium (Sigma-Aldrich, cat. no. R4130), supplemented with 10% of decomplemented human serum, hypoxanthine 50 mg/l (Sigma-Aldrich, cat. no. H9636). Biobank of Castilla y Leon and Centro de Transfusiones de Madrid as providers of human red blood cell concentrates. The production of gametocytes was induced from a 0.5% ring-stage parasitemia (day 0). Medium was changed daily to induce gametocytes differentiation, as previously described. At day 17, gametocytes were concentrated using a density gradient medium (NycoPrep 1.077, Progen cat. no. 1114550)[27]. Parasitemia was adjusted by FACS (SYBR-Green and MitoTracker double staining, 3–5% targeted). Hematocrit was adjusted to 0.5% by adding fresh RBCs and controlled by manual counting in a Neubauer chamber (Celeromics, cat. no. 717810). Finally, the gametocyte suspension was poured (45 μL/well) into the compound-containing 384-well microplate, then incubated 24 hours both for the screening campaign and the dose-response analysis. Both asexual and sexual stages were cultivated in RPMI 1640 supplemented with 25 mM HEPES, 50 mg/L hypoxanthine, 50 μg/mL gentami-cin, 10% pooled heat-inactivated human serum (A^+). Each batch of serum was obtained by pooling 10 serum bags from different donors. Serum was kept at −20 °C and thawed in a warmed water bath before use. A new serum batch was prepared when the previous was completed. For dose-response analysis and microfluidics, both the 3D7-pULG8-GFP[67] and the NF54 strain (BEI Resources, cat. no. MRA-1000) were tested. The 3D7 strain was cultivated as described above with the addition of 0.2% NaHCO3 and 2.5 nM of WR99210 for both asexual and sexual stages.
Both fixed-dose and dose-response analyses were performed according to a second protocol (Paris laboratory) to validate the selected hits from primary screening. Briefly, the gametocyte suspension was loaded into a 96-well empty plate (200 µL/well). For each dose-response, first, well volume was doubled and compound was added to obtain 10 µM final concentration. For the dose-response analysis, the gametocyte suspension was then manually serially diluted 1/2 for 12 points, obtaining 5 nM as the lower concentration. The same operation was done with DMSO to have a negative control. After 24 hours of incubation at 37 °C, gametocyte suspensions were loaded into a 96-well filtration plate[28] and microsphiltration was manually performed at 37 °C. Up and downstream samples were incubated for 30 min with Hoechst 33342 nuclear staining (1/1000 diluted in PBS, Thermo Fischer cat. no. H3570), washed, resuspended in 200 µL of PBS and then loaded into an empty 96-well plate before FACSCanto (BD Biosciences, Franklin Lakes, New Jersey, USA) quantification. Data from cytofluorimetry were analyzed with FlowJo V12. As per previously described experiences with this technique, to avoid the risk of microbead layers saturation, a microsphiltration experiment was repeated when the upstream gametocytemia exceeded 10%[25],[69].

A word on the IC50: it is the point on the concentration scale where inhibition reaches its midpoint.

Several values for one entry are separate records, joined by “and”; a condition that tells them apart may be missing. Identical values can stand only once. Entries after “also recorded” stand apart in the source; their conditions may differ. Some results are limits rather than exact numbers.

For `COc1cc2c(cc1OC)[C@@H]1Cc3ccc(OC)c(OC)c3CN1CC2` [(S)-(-)-Tetrahydropalmatine], the “confirmation of stiffening activity upon post-screening” value (from here on “confirmation”) (listed as L-THP) is listed as “not fully confirmed; also recorded: did not confirm”.

Take `CNC(=O)N1C[C@@H](C)N(c2ccc(C(=O)Nc3ccc(-c4ccc(-c5c[nH]c([C@@H]6CCCN6C(=O)[C@@H](NC(=O)OC)C(C)C)n5)cc4)c(OC(F)(F)F)c3)cn2)C[C@@H]1C` [TD-6450]: the “retention 24 h after drug washout” value is on record as 43%, the “confirmation” value is on record as “confirmed” and the Normalized retention rate stood at 27%. The IC50 (Plasmodium falciparum, 3D7, 96-well, five independent experiments, read-out: stiffening IC50, median (±SD)) was 280 ± 580 nM. In addition, the “persistence of stiffening activity after drug washout” value (mature gametocytes) is ≥ 24 h.

As for `C[C@H]1Cc2c([nH]c3cc(Cl)c(F)cc23)[C@@]2(N1)C(=O)Nc1ccc(Cl)cc12` [NITD609, cipargamin], the “retention 24 h after drug washout” value amounted to 23%, the “confirmation” value is “confirmed” and the Normalized retention rate came to 66%. The “Retention rates (single wells, Figure 4b)” value (gametocytes exposed to drugs 24 h) was 36.4701 and 62.0956 and 72.239.
